Like-named read-outs stand apart in the source and are kept apart here. Marks after values point to notes of the source that are not given here.
How the values were obtained:
MDA-kb2 cell line [1] = assay: Cytotoxicity in MDA-kb2 cells
[2] = Solubility in phosphate buffer and cell culture media; format: physicochemical; conditions: highest concentration tested per footnote f
MDA-kb2 cell line [3] = tested on: MDA-kb2 cell line

**Q.** For `CO[C@H]1[C@H](OC(=O)c2ccc(C)[nH]2)[C@H](O)[C@@H](Oc2ccc3c(O)c(NC(=O)c4c[nH]c(C(=O)Nc5c(O)c6ccc(O[C@H]7OC(C)(C)[C@@H](OC)[C@H](OC(=O)c8ccc(C)[nH]8)[C@@H]7O)c(C)c6oc5=O)c4C)c(=O)oc3c2C)OC1(C)C` [Coumermycin A1, coumermycin A1], which “MDA-kb2 cell culture LC50” value (MDA-kb2 cell line [1]; concentration at which cell viability was reduced by 50%, Promega Cell Titer Glo kit) is on record?
**A.** The value was 19.1 ± 9.1 µM.

**Q.** What about the “Cytotoxicity in MDA-kb2 cells (result in words)” value (MDA-kb2 cell line [1]; same conditions as the reporter assay) of the same molecule?
**A.** The value was “some accompanying toxicity”.

**Q.** For `COC1=C2C[C@@H](C)C[C@H](OC)[C@H](O)[C@@H](C)/C=C(\C)[C@H](OC(N)=O)[C@@H](OC)/C=C\C=C(/C)C(=O)NC(=CC1=O)C2=O` [Geldanamycin, geldanamycin], which “Solubility limit in cell culture media” value [2] is on record?
**A.** Its value is >2^f μM.

**Q.** And the “MDA-kb2 cell culture LC50” value (MDA-kb2 cell line [3])?
**A.** The value was >2^f μM.

**Q.** For `CO[C@@H]1[C@@H](OC(N)=O)[C@@H](O)[C@H](Oc2ccc3c(O)c(NC(=O)c4ccc(O)c(CC=C(C)C)c4)c(=O)oc3c2C)OC1(C)C` [Novobiocin, novobiocin], which “Cytotoxicity in MDA-kb2 cells (result in words)” value (MDA-kb2 cell line [3]) is on record?
**A.** Its value is “some accompanying toxicity”.

**Q.** And the “MDA-kb2 cell culture LC50” value (MDA-kb2 cell line [3])?
**A.** The value was 690 ± 188 µM.
